Measurements taken from ChEMBL document CHEMBL1134968, “Prodrug and covalent linker strategies for the solubilization of dual-action antioxidants/iron chelators” (Bioorg Med Chem Lett, 2002).
Values after ≈ are worked out from the molar mass of the structure shown.

Tests used:
[1] = Compound was tested for its solubility in water; format: ADME; settings: read-out: S
[2] = Compound was tested for its solubility in DMSO/H2O in a ratio of (1:9); format: ADME; settings: DMSO/H2O (1:9); read-out: S

| SMILES | solubility [1] [µg/mL] | solubility [2] [µg/mL] |
| --- | --- | --- |
| Cc1c(O)c(=O)ccn1CCNCc1cc(C(C)(C)C)c(O)c(C(C)(C)C)c1 | – | 10000 |
| Cc1c(O)c(=O)ccn1CCOCCOCCOCCOCCOCCCc1cc(C(C)(C)C)c(O)c(C(C)(C)C)c1 | < 100 | – |
| Cc1c(OC(=O)CCN)c(=O)ccn1CCCc1cc(C(C)(C)C)c(O)c(C(C)(C)C)c1 | > 20000 | – |
| Cc1c(C)c2c(c(C)c1O)CCC(C)(CNCCCCn1ccc(=O)c(O)c1C)O2 (stereo not given) | < 100 | – |
| CC(=O)Oc1c(C)n(CCCc2cc(C(C)(C)C)c(O)c(C(C)(C)C)c2)ccc1=O | < 100 | – |
| Cc1c(OC(=O)c2ccc(N)cc2)c(=O)ccn1CCCc1cc(C(C)(C)C)c(O)c(C(C)(C)C)c1 | < 100 | – |
| Cc1c(O)c(=O)ccn1CCOCCOCCOCCOCCCc1cc(C(C)(C)C)c(O)c(C(C)(C)C)c1 | < 100 | – |
| Cc1c(C)c2c(c(C)c1OC(=O)c1ccc(N)cc1)CC(CCn1ccc(=O)c(O)c1C)O2 (stereo not given) | < 100 | – |
| Cc1c(O)c(=O)ccn1CCCc1cc(C(C)(C)C)c(O)c(C(C)(C)C)c1 | < 100 | – |

Further lines, results first:

| solubility [1] [µg/mL] | solubility [2] [µg/mL] | SMILES |
| --- | --- | --- |
| 10000 (≈ 24.1 mM) | – | Cc1c(C)c2c(c(C)c1OC(=O)CCCN)CC(CCn1ccc(=O)c(O)c1C)O2 (stereo not given) |
| > 20000 | – | CNCC(=O)Oc1c(C)c(C)c2c(c1C)CC(CCn1ccc(=O)c(O)c1C)O2 (stereo not given) |
| < 100 | – | Cc1c(C)c2c(c(C)c1O)CC(CCn1ccc(=O)c(O)c1C)O2 (stereo not given) |
| 10000 (≈ 25 mM) | – | Cc1c(C)c2c(c(C)c1OC(=O)CCN)CC(CCn1ccc(=O)c(O)c1C)O2 (stereo not given) |
| > 20000 | – | Cc1c(C)c2c(c(C)c1OC(=O)CN(C)C)CC(CCn1ccc(=O)c(O)c1C)O2 (stereo not given) |
| > 20000 | – | Cc1c(C)c2c(c(C)c1OC(=O)C(N)C(C)C)CC(CCn1ccc(=O)c(O)c1C)O2 (stereo not given) |
